How the values were obtained:
Experiment in all cases: relative viability (nuclei count vs DMSO), 5 days (fraction); higher = more cells survive
Adavosertib + Trametinib = compound: C=CCn1c(=O)c2cnc(Nc3ccc(N4CCN(C)CC4)cc3)nc2n1-c1cccc(C(C)(C)O)n1 [Adavosertib] + CC(=O)Nc1cccc(-n2c(=O)n(C3CC3)c(=O)c3c(Nc4ccc(I)cc4F)n(C)c(=O)c(C)c32)c1 [Trametinib] (partner 0.02 µM)
Procedure, shortened: (§1)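 Five library-drug doses in √10 steps were combined with a fixed anchor-drug dose, or a single drug was given alone, by pin tool to lung cancer cell lines in 1536-well plates the day after seeding. Nuclei were stained and counted after 5 days. Relative viability is the nuclei count in treated wells over that in vehicle wells, taken as the median of duplicate plates.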

Adavosertib + Luminespib = compound: C=CCn1c(=O)c2cnc(Nc3ccc(N4CCN(C)CC4)cc3)nc2n1-c1cccc(C(C)(C)O)n1 [Adavosertib] + CCNC(=O)c1noc(-c2cc(C(C)C)c(O)cc2O)c1-c1ccc(CN2CCOCC2)cc1 [Luminespib] (partner 0.01 µM)
Procedure, shortened: as §1

Nelarabine + Pictilisib = compound: COc1nc(N)nc2c1ncn2[C@@H]1O[C@H](CO)[C@@H](O)[C@@H]1O [Nelarabine] + CS(=O)(=O)N1CCN(Cc2cc3nc(-c4cccc5[nH]ncc45)nc(N4CCOCC4)c3s2)CC1 [Pictilisib] (partner 1 µM)
Procedure, shortened: as §1

Nelarabine + Olaparib = compound: COc1nc(N)nc2c1ncn2[C@@H]1O[C@H](CO)[C@@H](O)[C@@H]1O [Nelarabine] + O=C(c1cc(Cc2n[nH]c(=O)c3ccccc23)ccc1F)N1CCN(C(=O)C2CC2)CC1 [Olaparib] (partner 8 µM)
Procedure, shortened: as §1

NCI-H647
relative viability (Adavosertib + Trametinib; first compound 0.01 µM): 0.561
relative viability (Adavosertib + Trametinib; first compound 0.03162 µM): 0.432
relative viability (Adavosertib + Trametinib; first compound 0.1 µM): 0.428
relative viability (Adavosertib + Trametinib; first compound 0.3162 µM): 0.415
relative viability (Adavosertib + Luminespib; first compound 0.01 µM): 0.128
relative viability (Adavosertib + Luminespib; first compound 0.03162 µM): 0.179
relative viability (Adavosertib + Luminespib; first compound 0.1 µM): 0.151
relative viability (Adavosertib + Luminespib; first compound 0.3162 µM): 0.136
relative viability (Nelarabine + Pictilisib; first compound 0.01 µM): 0.475
relative viability (Nelarabine + Pictilisib; first compound 0.03162 µM): 0.363
relative viability (Nelarabine + Pictilisib; first compound 0.1 µM): 0.492
relative viability (Nelarabine + Pictilisib; first compound 0.3162 µM): 0.445
relative viability (Nelarabine + Pictilisib; first compound 1 µM): 0.37
relative viability (Nelarabine + Olaparib; first compound 0.01 µM): 0.57
relative viability (Nelarabine + Olaparib; first compound 0.03162 µM): 0.498
relative viability (Nelarabine + Olaparib; first compound 0.1 µM): 0.633
relative viability (Nelarabine + Olaparib; first compound 0.3162 µM): 0.541
relative viability (Nelarabine + Olaparib; first compound 1 µM): 0.647

NCI-H2347
relative viability (Adavosertib + Trametinib; first compound 0.01 µM): 0.287
relative viability (Adavosertib + Trametinib; first compound 0.03162 µM): 0.327
relative viability (Adavosertib + Trametinib; first compound 0.1 µM): 0.323
relative viability (Adavosertib + Trametinib; first compound 0.3162 µM): 0.285
relative viability (Adavosertib + Luminespib; first compound 0.01 µM): 0.467
relative viability (Adavosertib + Luminespib; first compound 0.03162 µM): 0.382
relative viability (Adavosertib + Luminespib; first compound 0.1 µM): 0.723
relative viability (Adavosertib + Luminespib; first compound 0.3162 µM): 0.292
relative viability (Nelarabine + Pictilisib; first compound 0.01 µM): 0.555
relative viability (Nelarabine + Pictilisib; first compound 0.03162 µM): 0.303
relative viability (Nelarabine + Pictilisib; first compound 0.1 µM): 0.766
relative viability (Nelarabine + Pictilisib; first compound 0.3162 µM): 0.726
relative viability (Nelarabine + Pictilisib; first compound 1 µM): 0.606
relative viability (Nelarabine + Olaparib; first compound 0.01 µM): 0.658
relative viability (Nelarabine + Olaparib; first compound 0.03162 µM): 0.417
relative viability (Nelarabine + Olaparib; first compound 0.1 µM): 0.527
relative viability (Nelarabine + Olaparib; first compound 0.3162 µM): 0.574
relative viability (Nelarabine + Olaparib; first compound 1 µM): 0.52

NCI-H1395
relative viability (Adavosertib + Trametinib; first compound 0.01 µM): 1.06
relative viability (Adavosertib + Trametinib; first compound 0.03162 µM): 1.12
relative viability (Adavosertib + Trametinib; first compound 0.1 µM): 1.08
relative viability (Adavosertib + Trametinib; first compound 0.3162 µM): 0.864
relative viability (Adavosertib + Luminespib; first compound 0.01 µM): 0.836
relative viability (Adavosertib + Luminespib; first compound 0.03162 µM): 0.741
relative viability (Adavosertib + Luminespib; first compound 0.1 µM): 0.734
relative viability (Adavosertib + Luminespib; first compound 0.3162 µM): 0.424
relative viability (Nelarabine + Pictilisib; first compound 0.01 µM): 0.729
relative viability (Nelarabine + Pictilisib; first compound 0.03162 µM): 0.646
relative viability (Nelarabine + Pictilisib; first compound 0.1 µM): 0.659
relative viability (Nelarabine + Pictilisib; first compound 0.3162 µM): 0.694
relative viability (Nelarabine + Pictilisib; first compound 1 µM): 0.618
relative viability (Nelarabine + Olaparib; first compound 0.01 µM): 0.465
relative viability (Nelarabine + Olaparib; first compound 0.03162 µM): 0.431
relative viability (Nelarabine + Olaparib; first compound 0.1 µM): 0.403
relative viability (Nelarabine + Olaparib; first compound 0.3162 µM): 0.464
relative viability (Nelarabine + Olaparib; first compound 1 µM): 0.519

NCI-H522
relative viability (Adavosertib + Trametinib; first compound 0.01 µM): 0.797
relative viability (Adavosertib + Trametinib; first compound 0.03162 µM): 0.75
relative viability (Adavosertib + Trametinib; first compound 0.1 µM): 0.736
relative viability (Adavosertib + Trametinib; first compound 0.3162 µM): 0.653
relative viability (Adavosertib + Luminespib; first compound 0.03162 µM): 1.04
relative viability (Adavosertib + Luminespib; first compound 0.1 µM): 1.24
relative viability (Adavosertib + Luminespib; first compound 0.3162 µM): 1.2
relative viability (Nelarabine + Olaparib; first compound 0.01 µM): 0.619
relative viability (Nelarabine + Olaparib; first compound 0.03162 µM): 0.738
relative viability (Nelarabine + Olaparib; first compound 0.1 µM): 0.651
relative viability (Nelarabine + Olaparib; first compound 0.3162 µM): 0.592
relative viability (Nelarabine + Olaparib; first compound 1 µM): 0.639

NCI-H2087
relative viability (Adavosertib + Trametinib; first compound 0.01 µM): 0.217
relative viability (Adavosertib + Trametinib; first compound 0.03162 µM): 0.204
relative viability (Adavosertib + Trametinib; first compound 0.1 µM): 0.207
relative viability (Adavosertib + Trametinib; first compound 0.3162 µM): 0.2
relative viability (Adavosertib + Luminespib; first compound 0.01 µM): 0.208
relative viability (Adavosertib + Luminespib; first compound 0.03162 µM): 0.187
relative viability (Adavosertib + Luminespib; first compound 0.1 µM): 0.194
relative viability (Adavosertib + Luminespib; first compound 0.3162 µM): 0.195
relative viability (Nelarabine + Pictilisib; first compound 0.01 µM): 0.961
relative viability (Nelarabine + Pictilisib; first compound 0.03162 µM): 0.975
relative viability (Nelarabine + Pictilisib; first compound 0.1 µM): 0.99
relative viability (Nelarabine + Pictilisib; first compound 0.3162 µM): 1.22
relative viability (Nelarabine + Pictilisib; first compound 1 µM): 1.02
relative viability (Nelarabine + Olaparib; first compound 0.01 µM): 0.713
relative viability (Nelarabine + Olaparib; first compound 0.03162 µM): 0.421
relative viability (Nelarabine + Olaparib; first compound 0.1 µM): 0.73
relative viability (Nelarabine + Olaparib; first compound 0.3162 µM): 0.68
relative viability (Nelarabine + Olaparib; first compound 1 µM): 0.72
